# Assay results as given in patent US8106048B2, “Heterocyclic NF-κB inhibitors” (4SC AG, priority 2004, dated 2012).
# Test system: A549-NF-κB-SEAP reporter cells
# Test: Inhibition of NF-κB-induced inflammation: […] NINA Instant Assay, TNF-α stimulated SEAP reporter
# Format: cell-based
# Conditions: % inhibition classes
# Method in brief: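 A549 cells carrying an NF-κB-driven SEAP reporter were pretreated with compound (0.01–100 μM) for 4.5 h, then stimulated with 2 ng/ml TNF-α for 22 h. After inactivation of endogenous phosphatases, SEAP activity was read by CSPD chemiluminescence (40 min). EC50 values were fitted from quadruplicate data points.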
row,SMILES,Biological activity (inhibition in the NF-κB inflammation assay)
1,N#Cc1ccc(N2CCC(c3nc(C(=O)N4CCN(c5cccc(C(F)(F)F)c5)CC4)cs3)CC2)cc1 [compound 112],+ (“+” stands for 50-80% inhibition)
2,COc1ccccc1C(=O)N1CCN(c2nc(C(=O)N3CCN(c4cccc(C(F)(F)F)c4)CC3)cs2)CC1 [compound 38],+++ (“+++” stands for 90-100% inhibition)
3,O=C(c1csc(C2CCN(Cc3ccc(C(F)(F)F)cc3)CC2)n1)N1CCN(c2cccc(C(F)(F)F)c2)CC1 [compound 169],+ (“+” stands for 50-80% inhibition)
4,O=C(c1ccc(C(F)(F)F)c(F)c1)N1CCC(c2nc(C(=O)N3CCN(c4cccc(C(F)(F)F)c4)CC3)cs2)CC1 [compound 215],+++ (“+++” stands for 90-100% inhibition)
5,O=C(c1csc(C2CCN(Cc3ccc(F)cc3)CC2)n1)N1CCN(c2cccc(C(F)(F)F)c2)CC1 [compound 170],+ (“+” stands for 50-80% inhibition)
6,Cc1cc2nc(NC(=O)c3csc(C4CCN(C(=O)Cc5ccc(F)cc5)CC4)n3)[nH]c2cc1C [compound 131],+ (“+” stands for 50-80% inhibition)
7,Cc1sc(C2CCN(C(=O)c3ccccc3OC(F)(F)F)CC2)nc1CC(=O)N1CCN(c2cccc(C(F)(F)F)c2)CC1 [compound 103],++ (“++” means 80-90%)
8,CS(=O)(=O)c1ccc(N2CCC(c3nc(C(=O)N4CCN(c5cccc(C(F)(F)F)c5)CC4)cs3)CC2)cc1 [compound 117],+ (“+” stands for 50-80% inhibition)
9,N=C(NC(=O)c1coc(NC(=O)c2ccccc2OC(F)(F)F)n1)Nc1nc2ccccc2[nH]1 [compound 28],+++ (“+++” stands for 90-100% inhibition)
10,O=C(CCC1CCCC1)N1CCC(c2nc(C(=O)N3CCN(c4cccc(C(F)(F)F)c4)CC3)cs2)CC1 [compound 224],+ (“+” stands for 50-80% inhibition)
11,O=C(c1csc(C2CCN(Cc3ccc(F)cc3Cl)CC2)n1)N1CCN(c2cccc(C(F)(F)F)c2)CC1 [compound 171],+ (“+” stands for 50-80% inhibition)
12,COc1cccc(N2CCC(c3nc(C(=O)N4CCN(c5cccc(C(F)(F)F)c5)CC4)cs3)CC2)c1 [compound 178],+ (“+” stands for 50-80% inhibition)
13,Nc1cc(=O)[nH]c(NC(=O)c2csc(C3CCN(C(=O)c4ccccc4OC(F)(F)F)CC3)n2)n1 [compound 83],+ (“+” stands for 50-80% inhibition)
14,CCCCN1CCN(C(=O)c2csc(C3CCN(C(=O)Cc4ccc(F)cc4)CC3)n2)CC1 [compound 231],+ (“+” stands for 50-80% inhibition)
15,O=C(c1csc(C2CCN(S(=O)(=O)c3ccc(Cl)cc3Cl)CC2)n1)N1CCN(c2cccc(C(F)(F)F)c2)CC1 [compound 200],×
16,COc1ccc(N2CCC(c3nc(C(=O)N4CCN(c5cccc(C(F)(F)F)c5)CC4)cs3)CC2)c(OC)c1 [compound 153],+ (“+” stands for 50-80% inhibition)
17,NC(=Nc1nc2ccccc2[nH]1)NC(=O)c1csc(NC(=O)c2ccccc2OC(F)(F)F)n1 [compound 82],+++ (“+++” stands for 90-100% inhibition)
18,O=C(Nc1ccccc1OC(F)(F)F)N1CCC(c2nc(C(=O)N3CCN(c4cccc(C(F)(F)F)c4)CC3)cs2)CC1 [compound 79],+++ (“+++” stands for 90-100% inhibition)
19,O=C(c1csc(C2CCN(Cc3ccccc3)CC2)n1)N1CCN(c2cccc(C(F)(F)F)c2)CC1 [compound 177],+ (“+” stands for 50-80% inhibition)
20,CN(C(=O)c1csc(C2CCN(C(=O)c3ccccc3OC(F)(F)F)CC2)n1)C(CN1CCOCC1)c1ccccc1 (centres unmarked) [compound 147],+ (“+” stands for 50-80% inhibition)
21,O=C(c1csc(C2CCN(C(=O)c3ccccc3OC(F)(F)F)CC2)n1)N(CCc1ccccc1)Cc1ccccc1 [compound 149],+ (“+” stands for 50-80% inhibition)
22,O=C(c1csc(N2CCN(c3ccc(F)cc3)CC2)n1)N1CCN(c2cccc(C(F)(F)F)c2)CC1 [compound 69],++ (“++” means 80-90%)
23,COc1cc(NC(=O)N2CCC(c3nc(C(=O)N4CCN(c5cccc(C(F)(F)F)c5)CC4)cs3)CC2)cc(OC)c1OC [compound 81],++ (“++” means 80-90%)
24,O=C(c1csc(C2CCN(c3cc(C(F)(F)F)ccn3)CC2)n1)N1CCN(c2cccc(C(F)(F)F)c2)CC1 [compound 118],+ (“+” stands for 50-80% inhibition)
25,O=C(Nc1cccc(F)c1)N1CCC(c2nc(C(=O)N3CCN(c4cccc(C(F)(F)F)c4)CC3)cs2)CC1 [compound 142],++ (“++” means 80-90%)

row,SMILES,Biological activity (inhibition in the NF-κB inflammation assay)
1,N#Cc1ccc(C(=O)NCC2CCN(c3nc(C(=O)N4CCN(c5cccc(C(F)(F)F)c5)CC4)cs3)CC2)cc1 [compound 102],+ (“+” stands for 50-80% inhibition)
2,O=C(c1csc(C2CCN(S(=O)(=O)c3ccc(OC(F)(F)F)cc3)CC2)n1)N1CCN(c2cccc(C(F)(F)F)c2)CC1 [compound 205],+ (“+” stands for 50-80% inhibition)
3,O=C(Nc1ccccc1)N1CCC(c2nc(C(=O)N3CCN(c4cccc(C(F)(F)F)c4)CC3)cs2)CC1 [compound 134],+ (“+” stands for 50-80% inhibition)
4,N#CC1(c2ccccc2)CCN(C(=O)c2csc(C3CCN(C(=O)Cc4ccc(F)cc4)CC3)n2)CC1 [compound 228],+ (“+” stands for 50-80% inhibition)
5,N=C(NC(=O)c1cnc(NC(=O)c2ccccc2OC(F)(F)F)s1)Nc1nc2ccccc2[nH]1 [compound 50],+++ (“+++” stands for 90-100% inhibition)
6,N#CNC(=N)NC(=O)c1csc(C2CCN(C(=O)c3ccccc3OC(F)(F)F)CC2)n1 [compound 90],+ (“+” stands for 50-80% inhibition)
7,CN(C)c1ncnc(NC(=O)c2csc(C3CCN(C(=O)c4ccccc4OC(F)(F)F)CC3)n2)n1 [compound 88],+ (“+” stands for 50-80% inhibition)
8,O=C(Nc1nc(C(=O)N2CCN(c3cccc(C(F)(F)F)c3)CC2)cs1)c1ccc(C(F)(F)F)c(F)c1 [compound 34],+++ (“+++” stands for 90-100% inhibition)
9,Cc1cc2nc(NC(=O)Cc3nc(C4CCN(C(=O)c5ccccc5OC(F)(F)F)CC4)sc3C)[nH]c2cc1C [compound 106],+ (“+” stands for 50-80% inhibition)
10,O=C(CCC1CCCC1)Nc1nc(C(=O)N2CCN(c3cccc(C(F)(F)F)c3)CC2)cs1 [compound 33],+++ (“+++” stands for 90-100% inhibition)
11,O=C(c1csc(C2CCN(Cc3cccc(OC(F)(F)F)c3)CC2)n1)N1CCN(c2cccc(C(F)(F)F)c2)CC1 [compound 115],++ (“++” means 80-90%)
12,CC(c1cc2ccccc2[nH]1)N(C)C(=O)c1csc(C2CCN(C(=O)c3ccccc3OC(F)(F)F)CC2)n1 (centres unmarked) [compound 145],+ (“+” stands for 50-80% inhibition)
13,O=C(NCC1CCN(c2nc(C(=O)N3CCN(c4cccc(C(F)(F)F)c4)CC3)cs2)CC1)c1ccccc1OC(F)(F)F [compound 101],+ (“+” stands for 50-80% inhibition)
14,COc1ccc(N2CCC(c3nc(C(=O)N4CCN(c5cccc(C(F)(F)F)c5)CC4)cs3)CC2)cc1OC [compound 159],+ (“+” stands for 50-80% inhibition)
15,COc1cccc(NC(=O)N2CCC(c3nc(C(=O)N4CCN(c5cccc(C(F)(F)F)c5)CC4)cs3)CC2)c1 [compound 80],+ (“+” stands for 50-80% inhibition)
16,O=C(c1csc(C2CCN(S(=O)(=O)c3ccc(Br)cc3)CC2)n1)N1CCN(c2cccc(C(F)(F)F)c2)CC1 [compound 199],+ (“+” stands for 50-80% inhibition)
17,O=C(O)c1ccccc1C(=O)N1CCC(c2nc(C(=O)N3CCN(c4cccc(C(F)(F)F)c4)CC3)cs2)CC1 [compound 185],+ (“+” stands for 50-80% inhibition)
18,O=C(Nc1ccc2c(c1)OCCO2)N1CCC(c2nc(C(=O)N3CCN(c4cccc(C(F)(F)F)c4)CC3)cs2)CC1 [compound 136],+ (“+” stands for 50-80% inhibition)
19,O=C(c1csc(C2CCN(Cc3ccccc3OC(F)(F)F)CC2)n1)N1CCN(c2cccc(C(F)(F)F)c2)CC1 [compound 109],+ (“+” stands for 50-80% inhibition)
20,O=C(Nc1ccc(F)cc1)N1CCC(c2nc(C(=O)N3CCN(c4cccc(C(F)(F)F)c4)CC3)cs2)CC1 [compound 143],+ (“+” stands for 50-80% inhibition)
21,O=C(O)C=CC(=O)N1CCC(c2nc(C(=O)N3CCN(c4cccc(C(F)(F)F)c4)CC3)cs2)CC1 [compound 191],+ (“+” stands for 50-80% inhibition)
22,COc1ccc(OC)c(N2CCC(c3nc(C(=O)N4CCN(c5cccc(C(F)(F)F)c5)CC4)cs3)CC2)c1 [compound 116],+ (“+” stands for 50-80% inhibition)
23,O=C(Cc1ccc(F)cc1)N1CCC(c2nc(C(=O)N3CCC(n4nnc5ccccc54)CC3)cs2)CC1 [compound 182],+ (“+” stands for 50-80% inhibition)
24,O=C(c1csc(C2CCN(S(=O)(=O)c3cccs3)CC2)n1)N1CCN(c2cccc(C(F)(F)F)c2)CC1 [compound 194],+ (“+” stands for 50-80% inhibition)

# Same assay, conditions: inhibition classes
row,SMILES,Biological activity (inhibition in the NF-κB inflammation assay)
1,O=C(Cc1ccc(F)cc1)N1CCC(c2nc(C(=O)N3CCCC3c3ccc(F)cc3)cs2)CC1 (centres unmarked) [compound 236],+ (“+” stands for 50-80% inhibition)
